15 compounds from ChEMBL document CHEMBL5665443, “Enzyme Inhibitor Single Concentration assay results for EUbOPEN Chemogenomics Library” (2024) can be followed below.

Assay [1] has as its target Methyl-CpG-binding domain protein 4 (Homo sapiens) (UniProt O95243). As to conditions: Compound Concentration 10.0 uM, Hit No.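 Note: MBD4 activity read as fluorescence at 594 nm from cleavage and release of a quenched duplex DNA oligonucleotide, with APE1 coupled to incise the strand and raise turnover.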
Description: Inhibition of MBD4 by quantifying inhibition of MBD4-mediated cleavage and dissociation of quenched duplex DNA oligonucleotides, measured as fluorescence at 594 nm. To generate a functional strand incision and increase turn-over this assay is coupled to APE1.
Assay [2] concerns the target DNA-3-methyladenine glycosylase (Homo sapiens) (UniProt P29372). As to conditions: Compound Concentration 10.0 uM, Hit No.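 Note: enzyme assay where MPG cuts a quenched duplex DNA oligonucleotide probe, paired with APE1 for strand incision and turnover, read as fluorescence at 594 nm.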
Description: Inhibition of MPG by quantifying inhibition of MPG-mediated cleavage and dissociation of quenched duplex DNA oligonucleotides, measured as fluorescence at 594 nm. To generate a functional strand incision and increase turn-over this assay is coupled to APE1.
Assay [3] has as its target T1, Adenine DNA glycosylase (Homo sapiens) (UniProt Q9UIF7).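 Note: human MUTYH activity read as 594 nm fluorescence from cleavage and release of a quenched DNA duplex, coupled with APE1 for strand incision, lower signal meaning inhibition.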
T1 sequence (whole entry): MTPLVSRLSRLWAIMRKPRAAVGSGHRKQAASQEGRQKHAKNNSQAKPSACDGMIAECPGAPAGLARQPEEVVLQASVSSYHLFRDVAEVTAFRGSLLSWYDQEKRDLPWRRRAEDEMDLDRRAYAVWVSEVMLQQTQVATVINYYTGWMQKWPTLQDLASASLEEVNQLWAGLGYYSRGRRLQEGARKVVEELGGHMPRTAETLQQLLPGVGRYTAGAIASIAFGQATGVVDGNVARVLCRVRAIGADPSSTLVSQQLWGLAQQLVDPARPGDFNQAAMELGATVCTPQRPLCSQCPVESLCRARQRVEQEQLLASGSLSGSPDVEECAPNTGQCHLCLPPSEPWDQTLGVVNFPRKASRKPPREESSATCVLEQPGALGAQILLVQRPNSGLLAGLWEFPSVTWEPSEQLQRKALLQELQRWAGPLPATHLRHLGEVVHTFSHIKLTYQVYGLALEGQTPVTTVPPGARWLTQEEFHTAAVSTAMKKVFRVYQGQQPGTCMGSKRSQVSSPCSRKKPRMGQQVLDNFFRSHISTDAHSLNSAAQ
The note with it: Compound Concentration 10.0 uM, Hit No.
Description: Inhibition of MUTYH by quantifying inhibition of MUTYH-mediated cleavage and dissociation of quenched duplex DNA oligonucleotides, measured as fluorescence at 594 nm. To generate a functional strand incision and increase turn-over this assay is coupled to APE1.

Assay [4] addresses Endonuclease 8-like 1 (Homo sapiens) (UniProt Q96FI4). As to conditions: Compound Concentration 10.0 uM, Hit No.
Description: Inhibition of NEIL1 by quantifying inhibition of NEIL1-mediated cleavage and dissociation of quenched duplex DNA oligonucleotides, measured as fluorescence at 594 nm.
Assay [5] concerns the target T2, Endonuclease 8-like 2 (Homo sapiens) (UniProt Q969S2).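 Note: fluorescence at 594 nm reports NEIL2 cutting and release of a quenched double-stranded DNA oligo substrate, reduced signal read as inhibition.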
T2 sequence (whole entry): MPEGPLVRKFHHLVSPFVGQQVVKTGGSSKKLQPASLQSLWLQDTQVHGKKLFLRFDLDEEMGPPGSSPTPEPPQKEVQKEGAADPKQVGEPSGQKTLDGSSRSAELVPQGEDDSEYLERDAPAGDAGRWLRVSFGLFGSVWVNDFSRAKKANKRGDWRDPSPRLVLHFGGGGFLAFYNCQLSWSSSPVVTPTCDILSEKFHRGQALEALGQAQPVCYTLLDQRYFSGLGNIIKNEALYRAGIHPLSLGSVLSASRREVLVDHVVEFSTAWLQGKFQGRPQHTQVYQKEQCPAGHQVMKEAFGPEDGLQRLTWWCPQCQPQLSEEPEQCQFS
As to conditions: Compound Concentration 10.0 uM, Hit No.
Description: Inhibition of NEIL2 by quantifying inhibition of NEIL2-mediated cleavage and dissociation of quenched duplex DNA oligonucleotides, measured as fluorescence at 594 nm.

In assay [6] the target is T3, Endonuclease III-like protein 1 (Homo sapiens) (UniProt P78549).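 Note: enzyme assay tracking NTHL1 cutting and release of a quenched double-stranded DNA oligo substrate, read as fluorescence at 594 nm.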
T3 sequence (whole entry): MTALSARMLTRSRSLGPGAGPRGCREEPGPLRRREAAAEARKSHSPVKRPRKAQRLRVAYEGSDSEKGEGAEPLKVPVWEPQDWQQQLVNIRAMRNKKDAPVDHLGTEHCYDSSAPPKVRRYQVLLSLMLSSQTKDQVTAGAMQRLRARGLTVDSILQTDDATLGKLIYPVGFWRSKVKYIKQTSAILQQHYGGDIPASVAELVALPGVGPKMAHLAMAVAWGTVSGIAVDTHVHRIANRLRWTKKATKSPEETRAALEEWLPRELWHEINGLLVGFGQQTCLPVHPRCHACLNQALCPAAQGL
As to conditions: Compound Concentration 10.0 uM.
Description: Inhibition of NTHL1 by quantifying inhibition of NTHL1-mediated cleavage and dissociation of quenched duplex DNA oligonucleotides, measured as fluorescence at 594 nm.

Assay [7] concerns the target N-glycosylase/DNA lyase (Homo sapiens) (UniProt O15527). As to conditions: Compound Concentration 10.0 uM, Hit No.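 Note: OGG1 cleavage of a quenched duplex DNA oligonucleotide, coupled to APE1 for strand incision, read as fluorescence at 594 nm.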
Description: Inhibition of OGG1 by quantifying inhibition of OGG1-mediated cleavage and dissociation of quenched duplex DNA oligonucleotides, measured as fluorescence at 594 nm. To generate a functional strand incision and increase turn-over this assay is coupled to APE1.
Assay [8] addresses T4, Single-strand selective monofunctional uracil DNA glycosylase (Homo sapiens) (UniProt Q53HV7).
T4 sequence (whole entry): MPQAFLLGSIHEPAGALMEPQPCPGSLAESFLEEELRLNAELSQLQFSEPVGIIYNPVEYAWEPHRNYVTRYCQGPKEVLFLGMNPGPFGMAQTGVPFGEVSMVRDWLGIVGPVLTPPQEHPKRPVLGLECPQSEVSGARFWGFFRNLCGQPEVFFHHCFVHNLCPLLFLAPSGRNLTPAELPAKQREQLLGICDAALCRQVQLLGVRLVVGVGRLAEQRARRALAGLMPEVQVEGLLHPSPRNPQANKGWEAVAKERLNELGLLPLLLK
The note with it: Compound Concentration 10.0 uM, Hit No.
Description: Inhibition of SMUG1 by quantifying inhibition of SMUG1-mediated cleavage and dissociation of quenched duplex DNA oligonucleotides, measured as fluorescence at 594 nm. To generate a functional strand incision and increase turn-over this assay is coupled to APE1.

Assay [9] deals with G/T mismatch-specific thymine DNA glycosylase (Homo sapiens) (UniProt Q13569). The note with it: Compound Concentration 10.0 uM, Hit No.
G/T mismatch-specific thymine DNA glycosylase (Homo sapiens), sequence (Q13569 whole entry): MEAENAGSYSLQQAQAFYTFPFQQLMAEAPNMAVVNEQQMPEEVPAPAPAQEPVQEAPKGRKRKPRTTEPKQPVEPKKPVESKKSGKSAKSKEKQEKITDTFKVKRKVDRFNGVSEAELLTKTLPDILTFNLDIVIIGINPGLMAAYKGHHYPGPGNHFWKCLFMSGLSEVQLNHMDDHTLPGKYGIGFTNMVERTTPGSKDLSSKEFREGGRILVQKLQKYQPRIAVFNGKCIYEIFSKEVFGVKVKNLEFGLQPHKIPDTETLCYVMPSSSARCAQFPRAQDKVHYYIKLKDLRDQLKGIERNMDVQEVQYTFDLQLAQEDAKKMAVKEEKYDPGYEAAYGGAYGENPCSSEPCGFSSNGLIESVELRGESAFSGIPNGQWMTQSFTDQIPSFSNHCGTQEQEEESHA
Description: Inhibition of TDG by quantifying inhibition of TDG-mediated cleavage and dissociation of quenched duplex DNA oligonucleotides, measured as fluorescence at 594 nm. To generate a functional strand incision and increase turn-over this assay is coupled to APE1.
Assay [10] addresses Uracil-DNA glycosylase (Homo sapiens) (UniProt P13051). As to conditions: Compound Concentration 10.0 uM, Hit No.
Description: Inhibition of UNG by quantifying inhibition of UNG-mediated cleavage and dissociation of quenched duplex DNA oligonucleotides, measured as fluorescence at 594 nm. To generate a functional strand incision and increase turn-over this assay is coupled to APE1.

Methyl-CpG-binding domain protein 4 (Homo sapiens), sequence (O95243 whole entry, the tested form may be a part): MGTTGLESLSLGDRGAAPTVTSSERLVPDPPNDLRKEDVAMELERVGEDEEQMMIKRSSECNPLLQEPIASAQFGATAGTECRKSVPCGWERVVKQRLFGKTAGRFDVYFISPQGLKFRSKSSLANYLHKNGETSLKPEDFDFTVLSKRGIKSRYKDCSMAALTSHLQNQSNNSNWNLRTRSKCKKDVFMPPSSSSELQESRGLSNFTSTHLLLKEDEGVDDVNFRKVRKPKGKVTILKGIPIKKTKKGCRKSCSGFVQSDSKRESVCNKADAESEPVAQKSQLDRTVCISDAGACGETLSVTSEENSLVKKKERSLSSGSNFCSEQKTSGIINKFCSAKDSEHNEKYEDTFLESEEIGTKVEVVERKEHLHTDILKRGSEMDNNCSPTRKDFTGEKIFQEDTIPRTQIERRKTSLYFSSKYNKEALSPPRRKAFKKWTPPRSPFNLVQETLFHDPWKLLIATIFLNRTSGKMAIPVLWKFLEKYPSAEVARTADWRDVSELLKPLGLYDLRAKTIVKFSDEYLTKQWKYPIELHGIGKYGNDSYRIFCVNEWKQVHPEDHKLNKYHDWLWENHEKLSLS
Endonuclease 8-like 1 (Homo sapiens), sequence (Q96FI4 whole entry): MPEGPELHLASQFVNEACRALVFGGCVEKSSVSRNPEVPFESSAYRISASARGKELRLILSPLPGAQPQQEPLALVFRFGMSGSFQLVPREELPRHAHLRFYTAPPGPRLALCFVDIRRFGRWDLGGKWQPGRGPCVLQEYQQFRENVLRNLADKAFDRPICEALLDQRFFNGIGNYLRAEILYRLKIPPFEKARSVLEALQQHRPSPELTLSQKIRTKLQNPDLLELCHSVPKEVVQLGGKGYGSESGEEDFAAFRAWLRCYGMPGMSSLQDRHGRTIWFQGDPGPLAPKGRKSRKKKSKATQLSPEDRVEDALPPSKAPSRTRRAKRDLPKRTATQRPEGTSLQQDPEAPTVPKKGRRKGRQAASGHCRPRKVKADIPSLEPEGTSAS
DNA-3-methyladenine glycosylase (Homo sapiens), sequence (P29372 whole entry): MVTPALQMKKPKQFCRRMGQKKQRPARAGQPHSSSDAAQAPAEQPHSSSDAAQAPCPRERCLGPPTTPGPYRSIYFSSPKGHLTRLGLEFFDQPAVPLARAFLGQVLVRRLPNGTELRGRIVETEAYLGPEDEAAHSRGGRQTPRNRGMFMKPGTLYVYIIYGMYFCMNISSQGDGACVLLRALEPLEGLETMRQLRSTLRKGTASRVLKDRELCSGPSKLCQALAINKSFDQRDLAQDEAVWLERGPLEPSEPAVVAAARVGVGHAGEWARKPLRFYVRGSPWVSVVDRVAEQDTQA
Uracil-DNA glycosylase (Homo sapiens), sequence (P13051 whole entry): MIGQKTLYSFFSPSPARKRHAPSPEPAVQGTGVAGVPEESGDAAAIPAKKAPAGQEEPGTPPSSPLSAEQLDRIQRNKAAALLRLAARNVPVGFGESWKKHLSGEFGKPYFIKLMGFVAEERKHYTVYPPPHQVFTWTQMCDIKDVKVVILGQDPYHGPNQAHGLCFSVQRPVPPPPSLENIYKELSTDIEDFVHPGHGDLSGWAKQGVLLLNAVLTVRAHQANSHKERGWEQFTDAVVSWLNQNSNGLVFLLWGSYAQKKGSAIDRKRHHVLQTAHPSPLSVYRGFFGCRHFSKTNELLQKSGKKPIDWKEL
N-glycosylase/DNA lyase (Homo sapiens), sequence (O15527 whole entry): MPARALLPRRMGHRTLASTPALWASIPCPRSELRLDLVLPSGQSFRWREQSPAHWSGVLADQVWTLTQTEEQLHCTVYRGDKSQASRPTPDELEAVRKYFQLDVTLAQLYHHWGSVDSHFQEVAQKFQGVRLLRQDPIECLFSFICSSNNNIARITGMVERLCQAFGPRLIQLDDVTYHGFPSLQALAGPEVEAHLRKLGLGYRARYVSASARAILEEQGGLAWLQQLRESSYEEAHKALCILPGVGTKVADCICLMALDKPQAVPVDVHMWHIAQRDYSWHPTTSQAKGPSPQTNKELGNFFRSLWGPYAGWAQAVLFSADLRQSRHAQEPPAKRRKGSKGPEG

The term inhibition denotes the change of the read-out against control, counted positive when it falls. As to `CN1CCC(c2c[nH]c3ccc(O)cc23)CC1`, the inhibition was 8.69% in assay [1]; -0.341% in assay [2]; -5.79% in assay [3]; -2.51% in assay [4]; -2.39% in [5]; 12.9% in [6] (Hit No). Besides, the inhibition in assay [7] was -0.678%; in assay [8] it was -3.74%; in [9] it was 22.5%; in [10] it was -5.58%.

For `CCc1cc2c(cc1CC)CC(NC[C@H](O)c1ccc(O)c3[nH]c(=O)ccc13)C2`, the inhibition in assay [1] is 15.2%; in [2] it was 1.41%; in assay [3], 21.3%; in [4] it was 0.834%; in assay [5], -2.48%; in [6] (Hit No), 12.9%. The inhibition was 4.23% in assay [7], -5.22% in assay [8], 16.1% in [9] and -8.46% in assay [10].

Regarding `CSc1ccc(C(=O)/C=C/c2cc(C)c(OC(C)(C)C(=O)O)c(C)c2)cc1`, the inhibition in assay [1] was 77.3%; in assay [2], -8.02%; in [3], 16.2%; in [4] it was 0.467%; in assay [5] it was 2.06%; in [6] (Hit No) it was 2%. The inhibition was 18.2% in assay [7], 7.83% in [8], 99.6% in assay [9] and -1.57% in assay [10].

On to `CC[C@H](C(=O)Nc1ccccc1N1CCCC1)c1ccccc1`, for which the inhibition is 34.6% in assay [1]; 33.7% in assay [2]; 20.6% in assay [3]; 13.8% in assay [4]; 3.22% in [5]; 2.22% in assay [6] (Hit No). The inhibition is 0.561% in [7], 1.62% in assay [8], 33.1% in assay [9] and -2.53% in assay [10].

As to `N/C(=N\C(=O)c1nc(Cl)c(N)nc1N)NCc1ccccc1`, the inhibition stood at 41.7% in assay [1]; 25.3% in assay [2]; 36.7% in assay [3]; 9.94% in [4]; 15.2% in assay [5]; 15.4% in [6] (Hit No). For the same compound, the inhibition in assay [7] came to 16.3%; in assay [8], 7.5%; in assay [9], 32.7%; in assay [10], 4.68%.

As for `COc1ccc(OC)c(-c2ccc(NC(=O)c3ccncc3F)cc2)c1`, the inhibition is 23.8% in [1]; 28% in assay [2]; -1.87% in [3]; 3.57% in assay [4]; -1.37% in assay [5]; -0.258% in assay [6] (Hit No). Besides, the inhibition in assay [7] was 1.6%; in assay [8], 24.3%; in assay [9], 15.8%; in assay [10], 2.08%.

For `CCOC(=O)C1=C(C)NC(C)=C(C(=O)OC)C1c1cccc([N+](=O)[O-])c1` (stereo not given), the inhibition in [1] was -5.63%; in assay [2] it was 2.85%; in assay [3], -7.47%; in assay [4] it was 1.49%; in [5], -2.39%; in [6] (Hit No), 12.9%. In addition, the inhibition in assay [7] was -2.89%; in assay [8], 2.81%; in [9] it was 1.01%; in assay [10], -2.15%.

Regarding `COc1cc2nc(N3CCN(C(=O)C4CCCO4)CC3)nc(N)c2cc1OC` (stereo not given), the inhibition in assay [1] was 17%; in [2] it was 11.2%; in [3], 19%; in [4], 13.6%; in [5] it was 22.5%; in [6] (Hit No), -3.21%. In addition, the inhibition in [7] is 0.439%; in assay [8], 3.65%; in [9], 22.2%; in assay [10], -7.11%.

Consider `COc1ccc(CC(=O)NCc2ccccc2-c2ccccc2C(=O)NCc2ccc(F)cc2F)cc1`, for which the inhibition in [1] is 5.5%; in assay [2] it was 22.4%; in [3], 11.7%; in assay [4], 0.75%; in assay [5], 2.71%; in assay [6] (Hit No), -5.21%. The inhibition in [7] was -0.346%; in [8], 11%; in [9], 13.6%; in assay [10], 1.16%.

On to `COc1ccccc1N1CCN(C[C@@H](C(=O)NC(C)(C)C)c2ccccc2)CC1`, for which the inhibition in [1] was 17.7%; in assay [2], 15.3%; in assay [3], -2.23%; in assay [4] it was 15.4%; in assay [5] it was -2.13%; in [6] (Hit No), 17.1%. Further, the inhibition in [7] is -6.28%; in [8] it was 7.78%; in assay [9] it was 24.3%; in [10], -2.81%.

Turning to `O=c1cccc2n1C[C@@H]1CNC[C@H]2C1`, the inhibition was 10.5% in assay [1]; -3.1% in [2]; 43.9% in [3]; -1.18% in [4]; -3.15% in [5]; -4.39% in assay [6] (Hit No). Further, the inhibition in assay [7] is -5.41%; in assay [8], -3.8%; in assay [9], -5.51%; in assay [10] it was -3.14%.

Take `COC(=O)c1cc2c(cn1)[nH]c1ccccc12`: the inhibition was 8.08% in assay [1]; 11.4% in assay [2]; 41.5% in assay [3]; 5.05% in assay [4]; 22.6% in [5]; 2.22% in assay [6] (Hit No). In addition, the inhibition is 0.163% in assay [7], 2.02% in assay [8], 11% in assay [9] and -4.88% in assay [10].

Regarding `CC(=O)[C@H]1CC[C@H]2[C@@H]3CC[C@H]4C[C@H](O)CC[C@]4(C)[C@H]3CC[C@]12C`, the inhibition in [1] amounted to 25.8%; in assay [2], 31.5%; in assay [3], 1.4%; in [4], 9.05%; in assay [5], 5.51%; in assay [6] (Hit Yes), 46%. Also, the inhibition in assay [7] is 7.89%; in [8], 13.9%; in assay [9] it was 19.2%; in [10], -1.14%.

`Nc1nc2c(c(N3CCNCC3)n1)CCC1=C2[C@@H]2CCCC[C@@H]2O1`: the inhibition in assay [1] was 0.963%; in assay [2] it was -2.48%; in [3], 3.48%; in assay [4], -3.91%; in assay [5], 4.51%; in [6] (Hit No), 7.79%. Moreover, the inhibition in [7] was -5.22%; in [8] it was 13.7%; in assay [9], 6.18%; in assay [10] it was -2.85%.

On to `Cc1cccc(NC(=O)CN2CCC(c3ccccn3)CC2)c1`, for which the inhibition in assay [1] was 8.44%; in assay [2], 7.82%; in assay [3], 18.5%; in assay [4], -1.77%; in [5], -0.35%; in assay [6] (Hit No), 12.1%. Further, the inhibition in assay [7] was 0.0304%; in assay [8], 0.438%; in [9], 12.4%; in [10], -6.98%.
